Measurements published in patent US9629834B2, “Medicinal composition for inhibiting formation and/or enlargement of cerebral aneurysm or shrinking same” (KYOTO UNIVERSITY, priority 2013, dated 2017).

Experiments:
Assay type in all cases: in vivo, SD rat
cerebral aneurysm model [1] = assay: Inhibitory effect on formation of cerebral aneurysm in cerebral aneurysm model (EvG staining, size of aneurysm); conditions: 0.03 mg/5 mL or 0.1 mg/5 mL suspension, 5 mL/kg, forced oral, once a day, Day 1 to Day 27; Day 28; FIG. 5
Experimental: A rat model of cerebral aneurysm was prepared according to the method disclosed on the literature by Hashimoto et al. (Surgical Neurology 1978, Vol. 10, p. 3-8). Namely, 50 mg/kg of pentobarbital was administrated intraperitoneally to a 7-week-old male SD rat, and the left common carotid artery and the left renal artery were ligated by using 10-0 nylon thread under anesthesia (this is referred to as the surgery for inducing cerebral aneurysm). From the day after surgery (Day 1), the rat was reared with being fed a high-salt diet. During a rearing period, the rat was given free access to water. Forced oral administration of 0.03 mg/5 mL or 0.1 mg/5 mL of the suspension of Compound 1 to the cerebral aneurysm model was conducted once a day at a dose of 5 mL/kg from the day after surgery, i.e., 1 day after surgery (Day 1) to 27 days after surgery (Day 27). It should be noted that forced oral administration of the 0.5% MC solution (0 mg/5 mL of the suspension of Compound 1) to the cerebral aneurysm model was conducted once a day at a dose of 5 mL/kg. The group of these rats was defined as a vehicle group. 28 Days after surgery (Day 28), the right olfactory artery/anterior cerebral artery bifurcation containing cerebral aneurysm was extirpated and was fixed with 4% paraformaldehyde, and then the solution was replaced with a 30% sucrose solution, and thereafter, the extirpated bifurcation was frozen to prepare a specimen of a frozen section having a thickness of 5 μm, by similar procedures to the steps 1) and 2) of the method of Reference Example 2. This specimen was subjected to EvG staining and the formation of cerebral aneurysm was confirmed. The size of cerebral aneurysm was measured and evaluation was conducted. The maximum diameter (Maximum) represents the maximum distance between internal elastic lamina disruption sites observed by EvG staining, the height “Height” represents the maximum value of height defined as the length of the perpendicular line drawn from the line connecting the two ends of internal elastic lamina, and the mean diameter “Mean” represents the mean value of the maximum diameter and the height. This evaluation was conducted on all the rats (8 or 9 rats) of each of the groups, and the mean value of each of the groups was calculated. The administration of 0.1 mg/5 mL of a suspension of Compound 2 to the cerebral aneurysm model was started on the day of the surgery (Day 0) at a dose of 5 mL/kg, and forced oral administration was conducted once a day until 26 days after surgery (Day 26). The size of cerebral aneurysm was measured by using the protocol of Example 1. […] The size of cerebral aneurysm was measured by using the protocol of Example 1. […] The size of cerebral aneurysm was measured by using the protocol of Example 1.

cerebral aneurysm model [2] = assay: Inhibitory effect on enlargement of cerebral aneurysm in cerebral aneurysm model; conditions: 0.1 mg/5 mL suspension, forced oral, once a day from Day 7; measured Day 7, Day 28, Day 49; FIG. 8 and FIG. 9
Experimental: A rat model of cerebral aneurysm was prepared according to the method disclosed on the literature by Hashimoto et al. (Surgical Neurology 1978, Vol. 10, p. 3-8). Namely, 50 mg/kg of pentobarbital was administrated intraperitoneally to a 7-week-old male SD rat, and the left common carotid artery and the left renal artery were ligated by using 10-0 nylon thread under anesthesia (this is referred to as the surgery for inducing cerebral aneurysm). From the day after surgery (Day 1), the rat was reared with being fed a high-salt diet. During a rearing period, the rat was given free access to water. The cerebral aneurysm model was reared with being fed a high-salt diet for 7 days from the day of the surgery so that the model formed cerebral aneurysm. 7 Days after surgery (Week 1, Day 7), the diet for the cerebral aneurysm model was replaced with a normal diet, and forced oral administration of the suspension of Compound 1 at a concentration of 0.1 mg/5 mL to the cerebral aneurysm model was conducted once a day. […] 7 Days after surgery (Week 1, Day 7), 28 days after surgery (Week 4, Day 28), and 49 days after surgery (Week 7, Day 49), the right olfactory artery/anterior cerebral artery bifurcation containing cerebral aneurysm was extirpated and the size of cerebral aneurysm (the maximum diameter and the mean diameter) was measured by similar procedures to Example 1.

macrophages = assay: Macrophages infiltrating cerebral aneurysm walls in the enlargement study; conditions: 0.1 mg/5 mL suspension, forced oral, once a day from Day 7; 49 days after surgery (Week 7); FIG. 10
Experimental: Immunostaining of macrophages (F4/80-positive cells) was conducted on the prepared section as described below. As a primary antibody solution, a solution in which a rat anti-F4/80 antibody [BM8](AB16911: Abcam) was diluted with a phosphate buffer by 100 times was prepared. As a secondary antibody solution, a solution in which an alexa 488-conjugated donkey anti-rat IgG antibody (Invitrogen) was diluted with a phosphate buffer by 100 times was prepared. The section was allowed to react in the primary antibody solution at 4° C. for 16 hours, washed with a phosphate buffer, and thereafter, was allowed to react in the secondary antibody solution at room temperature for 1 hour. […] In addition, macrophages (F4/80-positive cells) stained green at the peripheries of nuclei (blue) were observed therein (in monochrome FIG. 3A, portions with a higher degree of whiteness). Under the observation with a confocal microscope, the number of macrophages was counted in an area of 100 μm square centered around the cerebrovascular bifurcation where cerebral aneurysm developed. The measurement was conducted on five rats and the mean value was calculated. […] In addition, 49 days after surgery (Week 7), the number of macrophages infiltrating cerebral aneurysm walls was counted according to the procedure of Reference Example 4 under the observation with a confocal microscope.

MCP-1 = assay: Suppression of expression of MCP-1 at cerebral artery bifurcation (immunostaining); conditions: vs group without drug, FIG. 4

With `C[C@H](Oc1ccc(-c2nc(-c3ccc4[nH]cnc4c3)no2)cc1C(F)(F)F)C(F)(F)F.Cl` [Compound 1, 5-{5-[3-(trifluoromethyl)-4-{[(2S)-1,1,1-trifluoropropan-2-yl]oxy}phenyl]-1,2,4-oxadiazol-3-yl}-1H-benzimidazole hydrochloride] the “formation of cerebral aneurysm (size: Maximum, Height, Mean)” value (cerebral aneurysm model [1]) was “inhibited the formation of cerebral aneurysm”, the “enlargement of cerebral aneurysm (maximum diameter and mean diameter)” value (cerebral aneurysm model [2]) was “inhibited the enlargement of cerebral aneurysm” and the “number of macrophages infiltrating cerebral aneurysm walls” value (macrophages) was “decreased the number of macrophages at the site where cerebral aneurysm was induced”. The “expression of MCP-1 in cerebral aneurysm walls” value (MCP-1; 0.03 mg/kg oral once a day) was “suppressed as compared to the group without being administered a drug” and the “expression of MCP-1 in cerebral aneurysm walls” value (MCP-1; 0.1 mg/kg oral once a day) was “suppressed as compared to the group without being administered a drug”.
